In ChEMBL document CHEMBL1201862, “PubChem BioAssay data set” (2004):
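A five-concentration, 48-hour dose response in 96-well plates underlies each endpoint, interpolated linearly between surrounding concentrations. The concentration for 50% growth inhibition is given as GI50.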 Calls of active or inactive are those of the source. Cut-off read from the data, not from the text of the source: active = GI50 up to about 1.1 µM and inactive = higher.

Legend:
Assay in all cases: DTP human tumour cell line panel, 48 h
A549 = system: A549
CAKI-1 = system: CAKI-1
HCT-15 = system: HCT-15
HOP-62 = system: HOP-62
HOP-92 = system: HOP-92
LOX IMVI = system: LOX IMVI
NCI-H522 = system: NCI-H522
OVCAR-8 = system: OVCAR-8
RPMI-8226 = system: RPMI-8226
RXF 393 = system: RXF 393
SF-295 = system: SF-295
SR = system: SR
UACC-62 = system: UACC-62
UO-31 = system: UO-31
SF-539 = system: SF-539

| SMILES | GI50 (A549) | GI50 (CAKI-1) | GI50 (HCT-15) | GI50 (HOP-62) | GI50 (HOP-92) | GI50 (LOX IMVI) | GI50 (NCI-H522) | GI50 (OVCAR-8) | GI50 (RPMI-8226) | GI50 (RXF 393) | GI50 (SF-295) | GI50 (SR) | GI50 (UACC-62) | GI50 (UO-31) | GI50 (SF-539) |
| --- | --- | --- | --- | --- | --- | --- | --- | --- | --- | --- | --- | --- | --- | --- | --- |
| CC(=O)OCC1OC(n2ccc(=O)[nH]c2=O)C(OC(C)=O)C(OC(C)=O)C1OC(C)=O (stereo not drawn) | > 100 µM (inactive) | > 100 µM (inactive) | > 100 µM | > 100 µM (inactive) | > 100 µM (inactive) | > 100 µM (inactive) | > 100 µM (inactive) | > 100 µM (inactive) | > 100 µM (inactive) | > 100 µM (inactive) | > 100 µM (inactive) | > 100 µM (inactive) | > 100 µM (inactive) | > 100 µM (inactive) |  |
| NC(=O)C(N)=O | > 100 µM (inactive) |  | > 100 µM | > 100 µM (inactive) | > 100 µM (inactive) | > 100 µM (inactive) | > 100 µM (inactive) | > 100 µM (inactive) | > 100 µM (inactive) | > 100 µM (inactive) | > 100 µM (inactive) | > 100 µM (inactive) | > 100 µM (inactive) | > 100 µM (inactive) | > 100 µM (inactive) |
| CO/C=C(\Br)c1ccc2c(c1)OCO2 | > 100 µM (inactive) | > 100 µM (inactive) |  | > 100 µM (inactive) | > 100 µM (inactive) |  | > 100 µM (inactive) | > 100 µM (inactive) |  | > 100 µM (inactive) | > 100 µM (inactive) | > 100 µM (inactive) | 64.9 µM (inactive) | > 100 µM (inactive) | > 100 µM (inactive) |
| COC(=O)C1=C(C(=O)OC)C2(C)Nc3ccccc3C2=C(c2ccccc2)C1 (stereo not drawn) | 20.4 µM (inactive) |  | 20.8 µM | 22.4 µM (inactive) | 13.3 µM (inactive) | 25.7 µM (inactive) | 15.8 µM (inactive) | 25 µM (inactive) | 10.4 µM (inactive) | 21.3 µM (inactive) | 23.2 µM (inactive) |  | 16.7 µM (inactive) | 17.9 µM (inactive) | 17.1 µM (inactive) |
| CCc1nnc(S)n1/N=C/c1ccc(-c2ccc([N+](=O)[O-])cc2)o1 | > 100 µM (inactive) | > 100 µM (inactive) | > 100 µM | > 100 µM (inactive) | > 100 µM (inactive) | > 100 µM (inactive) | > 100 µM (inactive) | > 100 µM (inactive) | > 100 µM (inactive) |  | > 100 µM (inactive) | > 100 µM (inactive) | > 100 µM (inactive) | > 100 µM (inactive) | > 100 µM (inactive) |
| NNC(=O)CNC(=O)c1ccc(Cl)cc1Cl | > 100 µM (inactive) | > 100 µM (inactive) | 32.7 µM | > 100 µM (inactive) | > 100 µM (inactive) |  | > 100 µM (inactive) | > 100 µM (inactive) | > 100 µM (inactive) |  | > 100 µM (inactive) |  | > 100 µM (inactive) | > 100 µM (inactive) | > 100 µM (inactive) |
| Cc1c(C(=O)CSc2nc3ccccc3c(=O)n2-c2ccccc2)c(=O)n(-c2ccccc2)n1C | 64.9 µM (inactive) | 0.185 µM (active) | > 100 µM | 31.4 µM (inactive) | 24.3 µM (inactive) | 42.1 µM (inactive) | 27.2 µM (inactive) |  | > 100 µM (inactive) |  | 28.8 µM (inactive) | 82.2 µM (inactive) |  | 34.8 µM (inactive) | 63.2 µM (inactive) |
| COC12CCC(C(C(=O)c3ccccc3)=C1C(=O)c1ccccc1)C(O)C2 (stereo not drawn) | > 100 µM (inactive) | > 100 µM (inactive) | > 100 µM | > 100 µM (inactive) | > 100 µM (inactive) |  | > 100 µM (inactive) | > 100 µM (inactive) | > 100 µM (inactive) |  | > 100 µM (inactive) | > 100 µM (inactive) | > 100 µM (inactive) | > 100 µM (inactive) | > 100 µM (inactive) |
| CCC1=C(C)/C(=C/c2[nH]c(C(Br)Br)c(CC)c2C)N=C1C(Br)Br | 25.2 µM (inactive) |  | 28.2 µM | 28.6 µM (inactive) | 74.1 µM (inactive) | 21.2 µM (inactive) | 13 µM (inactive) | 26.6 µM (inactive) | 9.68 µM (inactive) | 29.9 µM (inactive) | 26.1 µM (inactive) | 10.8 µM (inactive) | 31 µM (inactive) | 20.7 µM (inactive) | 53 µM (inactive) |
| CC(=O)OC1CC2Oc3ccc(C)cc3C(C)(O2)C1=O (stereo not drawn) | > 100 µM (inactive) |  | > 100 µM | > 100 µM (inactive) |  | > 100 µM (inactive) | > 100 µM (inactive) | > 100 µM (inactive) | > 100 µM (inactive) | > 100 µM (inactive) | > 100 µM (inactive) |  | > 100 µM (inactive) | > 100 µM (inactive) | > 100 µM (inactive) |
| CCCCN(CCCC)C(=O)C(=O)CC(=O)c1ccc(Br)cc1 | > 100 µM (inactive) | > 100 µM (inactive) | > 100 µM | > 100 µM (inactive) | > 100 µM (inactive) | > 100 µM (inactive) | > 100 µM (inactive) | > 100 µM (inactive) | > 100 µM (inactive) |  | > 100 µM (inactive) |  | > 100 µM (inactive) | > 100 µM (inactive) | > 100 µM (inactive) |
